From the supplement of paper PMC10307832

Key:
Assay in all cases: relative viability (nuclei count vs DMSO), 5 days (fraction); higher = more cells survive
MK-8033 + Linsitinib = compound: Cn1cc(-c2cnc3ccc4ccc(CS(=O)(=O)NCc5ccccn5)cc4c(=O)c3c2)cn1 [MK-8033] + C[C@]1(O)C[C@@H](c2nc(-c3ccc4ccc(-c5ccccc5)nc4c3)c3c(N)nccn32)C1 [Linsitinib] (partner 1 µM)
Method in brief: (§1)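 Relative viability is defined as nuclei in treated wells over nuclei in vehicle wells. Duplicate plates were run and medians reported. Lung cancer cell lines in 1536-well plates were dosed by pin tool one day after seeding, with one drug or with a fixed anchor-drug dose plus five library-drug doses (not always all listed) in √10 steps, and nuclei were counted after 5 days.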

MK-8033 + Crizotinib = compound: Cn1cc(-c2cnc3ccc4ccc(CS(=O)(=O)NCc5ccccn5)cc4c(=O)c3c2)cn1 [MK-8033] + C[C@@H](Oc1cc(-c2cnn(C3CCNCC3)c2)cnc1N)c1c(Cl)ccc(F)c1Cl [Crizotinib] (partner 1 µM)
Method in brief: as §1

RU-SKI 43 + Decitabine = compound: CC[C@@H](C)CNCC(=O)N1CCC2=C([C@@H]1COC3=CC=CC(=C3)C)C=CS2 [RU-SKI 43] + Nc1ncn([C@H]2C[C@H](O)[C@@H](CO)O2)c(=O)n1 [Decitabine] (partner 2 µM)
Method in brief: as §1

Irinotecan + Olaparib = compound: CCc1c2c(nc3ccc(OC(=O)N4CCC(N5CCCCC5)CC4)cc13)-c1cc3c(c(=O)n1C2)COC(=O)[C@]3(O)CC [Irinotecan] + O=C(c1cc(Cc2n[nH]c(=O)c3ccccc23)ccc1F)N1CCN(C(=O)C2CC2)CC1 [Olaparib] (partner 8 µM)
Method in brief: as §1

| Cell Line | relative viability (MK-8033 + Linsitinib; first compound 0.02 µM) | relative viability (MK-8033 + Linsitinib; first compound 0.06325 µM) | relative viability (MK-8033 + Linsitinib; first compound 0.2 µM) | relative viability (MK-8033 + Linsitinib; first compound 0.6325 µM) | relative viability (MK-8033 + Linsitinib; first compound 2 µM) | relative viability (MK-8033 + Crizotinib; first compound 0.02 µM) | relative viability (MK-8033 + Crizotinib; first compound 0.06325 µM) | relative viability (MK-8033 + Crizotinib; first compound 0.2 µM) | relative viability (MK-8033 + Crizotinib; first compound 0.6325 µM) | relative viability (MK-8033 + Crizotinib; first compound 2 µM) | relative viability (RU-SKI 43 + Decitabine; first compound 0.1 µM) | relative viability (RU-SKI 43 + Decitabine; first compound 0.3162 µM) | relative viability (RU-SKI 43 + Decitabine; first compound 1 µM) | relative viability (RU-SKI 43 + Decitabine; first compound 3.162 µM) | relative viability (RU-SKI 43 + Decitabine; first compound 10 µM) | relative viability (Irinotecan + Olaparib; first compound 0.6325 µM) | relative viability (Irinotecan + Olaparib; first compound 2 µM) | relative viability (Irinotecan + Olaparib; first compound 6.325 µM) | relative viability (Irinotecan + Olaparib; first compound 20 µM) |
| --- | --- | --- | --- | --- | --- | --- | --- | --- | --- | --- | --- | --- | --- | --- | --- | --- | --- | --- | --- |
| 201T | 1.13 | 0.916 | 0.979 | 1 | 1.02 | 1.07 | 0.991 | 1.03 | 0.874 | 1.03 | 0.838 | 0.824 | 0.854 | 0.856 | 0.831 | 0.53 | 0.312 | 0.231 | 0.264 |
| A549 | 0.627 | 0.571 | 0.52 | 0.515 | 0.581 | 0.719 | 0.713 | 0.703 | 0.848 | 0.677 | 0.256 | 0.263 | 0.25 | 0.307 | 0.234 | 0.073 | 0.186 | 0.0779 | 0.0719 |
| A-427 | 1.09 | 1.21 | 1.02 | 1.17 | 1.1 | 0.933 | 0.734 | 0.824 | 0.88 | 0.865 | 0.555 | 0.477 | 0.568 | 0.551 | 0.538 | 0.718 | 0.551 | 0.271 | 0.104 |
| ABC-1 | 0.744 | 0.791 | 0.676 | 0.829 | 0.657 | 1.06 | 1.14 | 1.06 | 0.996 | 1.04 | 1.01 | 1.14 | 1.2 | 1.07 | 1.17 |  | 0.68 | 0.421 | 0.375 |
| CAL-12T | 0.738 | 0.861 | 0.72 | 0.903 | 0.771 | 0.62 | 0.608 | 0.646 | 0.693 | 0.474 |  |  |  |  |  | 0.494 | 0.44 | 0.288 | 0.297 |
| Calu-6 | 0.895 | 0.96 | 0.874 | 1.01 | 0.876 | 0.831 | 0.77 | 0.704 | 0.828 | 0.695 |  |  |  |  |  | 0.258 | 0.326 | 0.225 | 0.128 |
| ChaGo-K-1 |  |  |  |  |  | 1.11 | 1.02 | 1.11 | 1.1 | 0.726 | 0.543 | 0.559 | 0.518 | 0.551 | 0.501 | 0.223 | 0.267 | 0.245 | 0.221 |
| EBC-1 | 0.938 | 0.68 | 0.895 | 1.05 | 0.167 | 0.158 | 0.16 | 0.193 | 0.193 | 0.188 |  |  |  |  |  | 0.228 | 0.224 | 0.257 | 0.188 |
| IA-LM | 0.522 | 0.465 | 0.654 | 0.61 | 0.587 | 0.739 | 0.667 | 0.948 | 0.667 | 0.899 |  |  |  |  |  | 0.537 | 0.177 | 0.166 | 0.0811 |
| NCI-H522 |  |  |  |  |  |  |  |  |  |  | 0.682 | 0.568 | 0.669 | 0.768 | 0.677 | 0.493 | 0.532 | 0.453 | 0.525 |
| NCI-H1299 | 0.997 | 0.997 | 0.958 | 1.05 | 0.988 | 0.956 | 0.925 | 0.92 | 0.946 | 0.971 |  |  |  |  |  | 0.539 | 0.478 | 0.337 | 0.207 |
| NCI-H1395 | 1.09 | 1.05 | 1.08 | 1.03 | 0.892 |  |  |  |  |  | 0.661 | 0.858 | 0.776 | 0.714 | 0.696 |  | 0.458 | 0.455 | 0.31 |
| NCI-H1563 | 1.26 | 1.15 | 1.13 | 1.23 | 1.19 | 0.918 | 0.813 | 0.773 | 0.93 | 0.812 |  |  |  |  |  |  |  |  |  |
| NCI-H1648 |  |  |  |  |  |  |  |  |  |  | 0.452 | 0.535 | 0.466 | 0.554 | 0.444 | 0.525 | 0.388 | 0.35 | 0.276 |
| NCI-H1650 |  |  |  |  |  | 0.997 | 0.867 | 0.996 | 0.919 | 0.832 | 0.315 | 0.36 | 0.338 | 0.509 | 0.34 | 0.722 | 0.436 | 0.296 | 0.139 |
| NCI-H1703 | 0.552 | 0.762 | 0.556 | 0.89 | 0.446 | 0.583 | 0.576 | 0.549 | 0.601 | 0.715 |  |  |  |  |  | 0.512 | 0.375 | 0.169 | 0.164 |
| NCI-H1793 | 0.915 |  | 0.775 | 0.858 | 0.782 |  |  |  |  |  | 0.461 | 0.421 | 0.458 | 0.486 | 0.443 |  | 0.528 | 0.173 | 0.209 |
| NCI-H2170 |  |  |  |  |  | 1.08 | 1.18 | 1.05 | 1.18 | 1.18 | 0.439 | 0.514 | 0.438 | 0.426 | 0.49 | 0.173 | 0.184 | 0.121 | 0.102 |
| NCI-H2228 | 0.577 | 0.629 | 0.537 | 0.761 | 0.625 | 0.373 | 0.372 | 0.508 | 0.387 | 0.362 |  |  |  |  |  | 0.496 | 0.486 | 0.451 | 0.486 |
| NCI-H2342 |  |  |  |  |  |  |  |  |  |  | 0.701 |  | 0.724 | 0.797 | 0.769 | 0.412 | 0.386 | 0.352 | 0.384 |
| SW 900 |  |  |  |  |  |  |  |  |  |  | 0.422 | 0.408 | 0.423 | 0.428 | 0.453 |  | 0.474 | 0.334 | 0.384 |
